Measured values published in ChEMBL document CHEMBL2311354, “C-3 halo and 3-methyl substituted 5'-nor-3-deazaaristeromycins: synthesis and antiviral properties” (Bioorg Med Chem, 2013).
pEC50: −log10 of the molar value. Active and inactive are the calls of the source. The rule behind the calls is not given here.

Tests used:
Dengue virus = experiment: Antiviral activity against Dengue virus infected in african green monkey Vero cells assessed as reduction of viral replication; type: functional, organism-based
Tacaribe virus = experiment: Antiviral activity against Tacaribe virus infected in african green monkey Vero 76 cells assessed as reduction of viral replication; type: functional, organism-based; settings: Mammarenavirus tacaribeense
Coxsackievirus B4 = experiment: Antiviral activity against Human coxsackievirus B4 infected in african green monkey Vero cells assessed as reduction of viral replication; type: functional, organism-based
[1] = system: Respiratory syncytial virus; experiment: Antiviral activity against Respiratory syncytial virus infected in monkey MA104 cells assessed as reduction of viral replication; type: functional, organism-based
Human alphaherpesvirus 2 = experiment: Antiviral activity against HSV2 infected in human HEL cells assessed as reduction of viral replication; type: functional, organism-based
[2] = Cytotoxicity against human HepG2.215 cells assessed as reduction of cell viability; type: cell-based, HepG2 2.2.15
Measles morbillivirus = experiment: Antiviral activity against Measles virus infected in african green monkey CV1 cells assessed as reduction of viral replication; type: functional, organism-based; settings: CV-1
Influenza B virus = experiment: Antiviral activity against influenza B virus infected in MDCK cells assessed as reduction of viral replication; type: functional, organism-based
Human alphaherpesvirus 1 = experiment: Antiviral activity against HSV1 infected in human HEL cells assessed as reduction of viral replication; type: functional, organism-based
[3] = Cytotoxicity against african green monkey Vero cells assessed as concentration required to cause microscopically alternation of cellular morphology; type: cell-based; settings: chlorocebus sabaeus
Hepatitis B virus = experiment: Antiviral activity against Hepatitis B virus infected in human HepG 2.215 cells assessed as reduction of viral replication; type: functional, organism-based; settings: for pEC50: HepG2.2.15
Feline coronavirus = experiment: Antiviral activity against Feline coronavirus infected in cat CRFK cells assessed as reduction of viral replication; type: functional, organism-based
Influenza A virus [4] = experiment: Antiviral activity against influenza A H3N2 infected in MDCK cells assessed as reduction of viral replication; type: functional, organism-based
[5] = Selectivity index, ratio of CC50 for MDCK cells to EC50 for influenza A virus H5N1; type: toxicity, cell-based; settings: dog, read-out: Ratio CC50/EC50
[6] = system: Vesicular stomatitis virus; experiment: Antiviral activity against Vesicular stomatitis virus infected in human HEL cells assessed as reduction of viral replication; type: functional, organism-based
[7] = Selectivity index, ratio of CC50 for african green monkey CV1 cells to EC50 for Measles virus; type: toxicity, cell-based, CV-1; settings: read-out: Ratio CC50/EC50
[8] = system: Human immunodeficiency virus 2; experiment: Antiviral activity against HIV2 infected in human CEM cells assessed as reduction of viral replication; type: functional, organism-based; settings: CCRF-CEM
Human gammaherpesvirus 4 = experiment: Antiviral activity against Epstein-Barr virus infected in human HFF cells assessed as reduction of viral replication; type: functional, organism-based
[9] = system: Human immunodeficiency virus 1; experiment: Antiviral activity against HIV1 infected in human CEM cells assessed as reduction of viral replication; type: functional, organism-based; settings: CCRF-CEM
Influenza A virus [10] = experiment: Antiviral activity against influenza A virus H5N1 infected in MDCK cells assessed as reduction of viral replication; type: functional, organism-based
[11] = Cytotoxicity against human HFF cells assessed as reduction of cell viability; type: cell-based
[12] = system: Mammalian orthoreovirus 1; experiment: Antiviral activity against Reovirus 1 infected in african green monkey Vero cells assessed as reduction of viral replication; type: functional, organism-based; settings: for pEC50: Mammalian orthoreovirus 1, Vero
Enterovirus = experiment: Antiviral activity against Rhinovirus infected in human HeLa Ohio1 cells assessed as reduction of viral replication; type: functional, organism-based
Influenza A virus [13] = experiment: Antiviral activity against influenza A H1N1 infected in MDCK cells assessed as reduction of viral replication; type: functional, organism-based
Human respirovirus 3 = experiment: Antiviral activity against Human parainfluenzae virus 3 infected in african green monkey Vero cells assessed as reduction of viral replication; type: functional, organism-based; settings: for pEC50: Human respirovirus 3, Vero
unidentified adenovirus = experiment: Antiviral activity against Adenovirus infected in human A549 cells assessed as reduction of viral replication; type: functional, organism-based
[14] = Cytotoxicity against human HEL cells assessed as concentration required to cause microscopically alternation of cellular morphology; type: cell-based
Human alphaherpesvirus 3 = experiment: Antiviral activity against Varicella-zoster virus infected in human HFF cells assessed as reduction of viral replication; type: functional, organism-based; settings: for pEC50: Human alphaherpesvirus 3, HFF
Cowpox virus = experiment: Antiviral activity against Cowpox virus infected in human HFF cells assessed as reduction of viral replication; type: functional, organism-based
Vaccinia virus = experiment: Antiviral activity against Vaccinia virus infected in human HEL cells assessed as reduction of viral replication; type: functional, organism-based; settings: Orthopoxvirus vaccinia
Yellow fever virus = experiment: Antiviral activity against Yellow fever virus infected in african green monkey Vero cells assessed as reduction of viral replication; type: functional, organism-based
Punta Toro virus = experiment: Antiviral activity against Punta Toro virus infected in african green monkey Vero cells assessed as reduction of viral replication; type: functional, organism-based
[15] = Cytotoxicity against african green monkey CV1 cells assessed as reduction of cell viability; type: cell-based, CV-1; settings: chlorocebus aethiops
West Nile virus = experiment: Antiviral activity against West Nile virus infected in african green monkey Vero cells assessed as reduction of viral replication; type: functional, organism-based
[16] = Cytotoxicity against MDCK cells assessed as reduction of cell viability; type: cell-based, Canis lupus familiaris; settings: dog
[17] = Selectivity index, ratio of CC50 for MDCK cells to EC50 for influenza B virus; type: toxicity, cell-based; settings: dog, read-out: Ratio CC50/EC50
Sindbis virus = experiment: Antiviral activity against Sindbis virus infected in african green monkey Vero cells assessed as reduction of viral replication; type: functional, organism-based
Rift Valley fever virus = experiment: Antiviral activity against Rift Valley fever virus infected in african green monkey Vero 76 cells assessed as reduction of viral replication; type: functional, organism-based
Cytomegalovirus = experiment: Antiviral activity against human cytomegalovirus infected in human HFF cells assessed as reduction of viral replication; type: functional, organism-based; settings: for pEC50: Human betaherpesvirus 5, HFF
[18] = Selectivity index, ratio of CC50 for human HFF cells to EC50 for Varicella-zoster virus; type: toxicity, cell-based; settings: read-out: Ratio CC50/EC50
[19] = Selectivity index, ratio of CC50 for human HepG2.215 cells to EC50 for Hepatitis B virus; type: toxicity; settings: read-out: Ratio CC50/EC50
[20] = Selectivity index, ratio of CC50 for human HFF cells to EC50 for human cytomegalovirus; type: toxicity, cell-based; settings: read-out: Ratio CC50/EC50

## Nc1ncc(Cl)c2c1ncn2[C@@H]1C[C@H](O)[C@@H](O)[C@H]1O
Dengue virus
  Activity: inactive
Tacaribe virus
  Activity: inactive
Coxsackievirus B4
  Activity: inactive
[1]
  Activity: inactive
Human alphaherpesvirus 2
  Activity: inactive
[2]
  CC50: > 300 µM
Measles morbillivirus
  pEC50: 6.74
Influenza B virus
  pEC50: 6.21
Human alphaherpesvirus 1
  Activity: inactive
[3]
  MCC: > 200 µM
Hepatitis B virus
  pEC50: < 5.00
Feline coronavirus
  Activity: inactive
Influenza A virus [4]
  Activity: inactive
[5]
  selectivity ratio: > 77
[6]
  pEC50: 5.10
[7]
  selectivity ratio: > 1730
[8]
  Activity: inactive
Human gammaherpesvirus 4
  Activity: inactive
[9]
  Activity: inactive
Influenza A virus [10]
  pEC50: 5.40
[11]
  CC50: > 300 µM
[12]
  pEC50: 5.80
Enterovirus
  Activity: inactive
Influenza A virus [13]
  Activity: inactive
Human respirovirus 3
  pEC50: 5.80
Unidentified adenovirus
  Activity: inactive
[14]
  MCC: > 100 µM
Human alphaherpesvirus 3
  pEC50: < 3.52
Cowpox virus
  Activity: inactive
Vaccinia virus
  pEC50: 3.92
Yellow fever virus
  Activity: inactive
Punta Toro virus
  pEC50: 4.62
[15]
  CC50: 311 µM
West Nile virus
  Activity: inactive
[16]
  CC50: > 311 µM
[17]
  selectivity ratio: > 500
Sindbis virus
  Activity: inactive
Rift Valley fever virus
  Activity: inactive

## Cc1cnc(N)c2ncn([C@@H]3C[C@H](O)[C@@H](O)[C@H]3O)c12
Dengue virus
  Activity: inactive
Tacaribe virus
  Activity: inactive
Coxsackievirus B4
  Activity: inactive
[1]
  Activity: inactive
Human alphaherpesvirus 2
  Activity: inactive
Measles morbillivirus
  Activity: inactive
Influenza B virus
  Activity: inactive
Human alphaherpesvirus 1
  Activity: inactive
Hepatitis B virus
  Activity: inactive
Feline coronavirus
  Activity: inactive
Influenza A virus [4]
  Activity: inactive
[6]
  Activity: inactive
[8]
  Activity: inactive
Human gammaherpesvirus 4
  Activity: inactive
Cytomegalovirus
  Activity: inactive
[9]
  Activity: inactive
Influenza A virus [10]
  Activity: inactive
[12]
  Activity: inactive
Enterovirus
  Activity: inactive
Influenza A virus [13]
  Activity: inactive
Human respirovirus 3
  Activity: inactive
Unidentified adenovirus
  Activity: inactive
Human alphaherpesvirus 3
  Activity: inactive
Cowpox virus
  Activity: inactive
Vaccinia virus
  Activity: inactive
Yellow fever virus
  Activity: inactive
Punta Toro virus
  Activity: inactive
West Nile virus
  Activity: inactive
Sindbis virus
  Activity: inactive
Rift Valley fever virus
  Activity: inactive

## Nc1ncc(I)c2c1ncn2[C@@H]1C[C@H](O)[C@@H](O)[C@H]1O
Dengue virus
  Activity: inactive
Tacaribe virus
  Activity: inactive
Coxsackievirus B4
  Activity: inactive
[1]
  Activity: inactive
Human alphaherpesvirus 2
  Activity: inactive
[2]
  CC50: > 300 µM
Measles morbillivirus
  pEC50: 5.54
Influenza B virus
  pEC50: 5.66
Human alphaherpesvirus 1
  Activity: inactive
[3]
  MCC: 100 µM
Hepatitis B virus
  pEC50: 6.09
Feline coronavirus
  Activity: inactive
[18]
  selectivity ratio: < 3.4
Influenza A virus [4]
  Activity: inactive
[5]
  selectivity ratio: > 6
[6]
  pEC50: 5.40
[7]
  selectivity ratio: 23
[8]
  Activity: inactive
Human gammaherpesvirus 4
  Activity: inactive
Cytomegalovirus
  pEC50: 5.92
[9]
  Activity: inactive
Influenza A virus [10]
  pEC50: 4.36
[11]
  CC50: 201 µM
[12]
  pEC50: 5.40
Enterovirus
  Activity: inactive
Influenza A virus [13]
  Activity: inactive
Human respirovirus 3
  pEC50: 4.70
Unidentified adenovirus
  Activity: inactive
[14]
  MCC: > 100 µM
Human alphaherpesvirus 3
  pEC50: < 4.22
Cowpox virus
  Activity: inactive
[19]
  selectivity ratio: > 370
Vaccinia virus
  pEC50: 5.40
Yellow fever virus
  Activity: inactive
Punta Toro virus
  pEC50: < 4.70
[20]
  selectivity ratio: 182
[15]
  CC50: 67 µM
West Nile virus
  Activity: inactive
[16]
  CC50: > 242 µM
[17]
  selectivity ratio: > 111
Sindbis virus
  Activity: inactive
Rift Valley fever virus
  Activity: inactive

## Nc1ncc(Br)c2c1ncn2[C@@H]1C[C@H](O)[C@@H](O)[C@H]1O
Dengue virus
  Activity: inactive
Tacaribe virus
  Activity: inactive
Coxsackievirus B4
  Activity: inactive
[1]
  Activity: inactive
Human alphaherpesvirus 2
  Activity: inactive
[2]
  CC50: > 10 µM
Measles morbillivirus
  pEC50: < 3.56
Influenza B virus
  pEC50: 4.57
Human alphaherpesvirus 1
  Activity: inactive
[3]
  MCC: > 8 µM
Hepatitis B virus
  pEC50: 7.66
Feline coronavirus
  Activity: inactive
[18]
  selectivity ratio: > 2630
Influenza A virus [4]
  Activity: inactive
[6]
  pEC50: < 3.70
[8]
  Activity: inactive
Human gammaherpesvirus 4
  Activity: inactive
Cytomegalovirus
  pEC50: 5.77
[9]
  Activity: inactive
[11]
  CC50: > 300 µM
[12]
  pEC50: 5.80
Enterovirus
  Activity: inactive
Influenza A virus [13]
  Activity: inactive
Human respirovirus 3
  pEC50: 5.10
Unidentified adenovirus
  Activity: inactive
[14]
  MCC: > 200 µM
Human alphaherpesvirus 3
  pEC50: 6.96
Cowpox virus
  Activity: inactive
[19]
  selectivity ratio: > 454
Vaccinia virus
  pEC50: 4.62
Yellow fever virus
  Activity: inactive
Punta Toro virus
  pEC50: < 5.10
[20]
  selectivity ratio: > 175
[15]
  CC50: > 273 µM
West Nile virus
  Activity: inactive
[16]
  CC50: > 273 µM
[17]
  selectivity ratio: > 100
Sindbis virus
  Activity: inactive
Rift Valley fever virus
  Activity: inactive
